Experimental data reported in US7527938B2, “Methods for diagnosis and treatment of chronic immune diseases” (R.E.D. Laboratories N.V./S.A., priority 2001, dated 2009).
Where a SMILES comes first, the peptide text is derived from it. The star is where a group is joined. Cbz = O=C(OCc1ccccc1)*

System: Stat-1-specific proteases in PBMC extracts
Test: Effect of protease inhibitors on Stat-1 protein degradation in mixed PBMC extracts (Western blot)
Assay type: biochemical, human
Details: healthy control PBMC extract mixed with CFS patient PBMC extract (RNase L ratio=3.0), 37 C, 15 minutes; inhibitor 50 micromolar final concentration; anti-Stat-1 Western blot (FIG. 4)
Experimental: One of the two extracts used was from a healthy control (i.e., RNase L ratio<0.2; no protease present, detectable levels of Stat-1 protein). The other extract was from a patient with CFS (i.e., RNase L ratio>2.0; protease(s) present, no detectable level of Stat-1 protein).
Sixty (60) micrograms of PBMC extract from the healthy control was mixed with 60 micrograms of PBMC extract from a CFS patient and incubated at 37 C for 15 minutes in the presence of a) buffer only, b) DMSO (solvent for the protease inhibitors), c) Calpastatine, 50 micromolar final concentration, d) Calpain Inhibitor Type I, 200 micromolar final concentration, e) Calpain Inhibitor Type II, 200 micromolar final concentration, f) Caspase 3 Inhibitor Type II, 5 micromolar final concentration, or g) Proteasome Inhibitor (MG 132), 50 micromolar final concentration. All protease inhibitors above, as well as DMSO, were from Sigma Chemical Company.
After the 15 minute incubation, 2×SDS-PAGE gel sample dye was added and the sample heated to 95 C for five minutes to denature the proteins. The denatured samples were then subjected to standard SDS-PAGE using a 4 percent stacking gel and 10 percent separating gel. Transfer to PVDF membrane, Western blot with anti-Stat-1 antibody, and color development were performed exactly as described above.

With `CC(C)C[C@@H](C=O)NC(=O)[C@H](CC(C)C)NC(=O)[C@H](CC(C)C)NC(=O)OCc1ccccc1` [MG 132] (Cbz-Leu-Leu-Leu-aldehyde) the “degradation of Stat-1 protein” value was “inhibited”.
